Results reported in US20110092367A1, “Herbicidal Compositions Comprising 4-amino-3,6-dichloropyridine-2-carboxylic Acid” (BASF SE, priority 2008, published 2011).

Key:
Assay type in all cases: in vivo
[1] = system: Mercurialis annua; experiment: Greenhouse trial, post-emergence: MERAN; details: for % activity 28 DAT: MERAN
Method: (§1) The test plants have been seeded, separately for each species, in plastic containers in sandy loamy soil containing 5% organic matter.
(§2) For the post emergence treatment, the plants were first grown to the 2 leaf station (GS 12). Here, the herbicidal compositions were suspended or emulsified in water as distribution medium and sprayed using finely distributing nozzels.
(§3) The plants have been cultivated due to there individual requirements at 10-25° C. and 20-35° C. The plants were irrigated due to there necessity. […]
(§4) The evaluation for the damage on undesired weeds caused by the chemical compositions was carried out using a scale from 0 to 100%, compared to the untreated control plants. Here, 0 means no damage and 100 means complete destruction of the plants.
(§5) Calculation of expected activity of binary mixtures was done by using the Colby-Formula according to Example 1.

[2] = system: Centauria cyanus; experiment: Greenhouse trial, post-emergence: CENCY; details: post-emergence; for % activity 28 DAT: CENCY
Method: as §1, §2, §3, §4, §5

[3] = system: Capsella bursa-pasturis; experiment: Greenhouse trial, post-emergence: CAPBP; details: post-emergence (Table 10)
Method: as §1, §2, §3, §4, §5

[4] = system: Lamium purpureum; experiment: Greenhouse trial, post-emergence: LAMPU; details: for % activity 28 DAT: LAMPU
Method: as §1, §2, §3, §4, §5

[5] = system: Papaver rhoeas; experiment: Greenhouse trial, post-emergence: PAPRH
Method: as §1, §2, §3, §4, §5

[6] = system: Stellaria media; experiment: Greenhouse trial, post-emergence: STEME; details: flufenacet 60 g ai/ha solo, post-emergence
Method: as §1, §2, §3, §4, §5

[7] = system: Alopecurus myosuroides; experiment: Field trial Example 2, combined application: ALOMY; details: Metazachlor 500 g ai/ha solo, 28 DAT
Method: (§6) Aminiopyralid was used as commercial aquaeous solution having an active ingredient concentration of 240 g/l (Milestone™). Metazachlor was used as a commercial suspension concentrate having an active ingredient concentration of 500 g/l (Butisan S®).
as §4
(§7) The value E, which is to be expected if the activity of the individual compounds is just additive, was calculated using the method of S. R. Colby (1967) “Calculating synergistic and antagonistic responses of herbicide combinations”, Weeds 15, p. 22 ff.
(§8) The performance of aminopyralid, applied as an alone treatment at […] and 15 g ai/ha, and the performance of metazachlor, applied as an alone treatment at 375 and 500 g ai/ha, as well as the mixtures of the both compounds have been assessed in winter oilseed rape field trials. The trials have been conducted in Germany at two locations.
(§9) Post emergence treatment was applied by means of fine distributed nozzels at the growth stage (GS/BBCH 11/12).

[8] = system: Anthemis arvensis; experiment: Field trial Example 2, combined application: ANTAR
Method: as §6, §4, §7, §8, §9

[9] = system: Centaurea cyanus; experiment: Field trial Example 2, combined application: CENCY; details: Metazachlor 375 g ai/ha solo, 78 DAT
Method: as §6, §4, §7, §8, §9

[10] = system: Matricaria inodora; experiment: Field trial Example 2, combined application: MATIN
Method: as §6, §4, §7, §8, §9

[11] = system: Papaver rhoeas; experiment: Field trial Example 2, combined application: PAPRH
Method: as §6, §4, §7, §8, §9

[12] = system: Stellaria media; experiment: Field trial Example 2, combined application: STEME; details: Metazachlor 500 g ai/ha solo, 28 DAT
Method: as §6, §4, §7, §8, §9

[13] = system: Matricaria chamomilla; experiment: Greenhouse trial, post-emergence: MATCH; details: solo, 187 g ai/ha, greenhouse
Method: as §1, §2
The plants have been cultivated due to there individual requirements at 10-25° C. and 20-35° C. The plants were irrigated due to there necessity.
In the following experiments, the herbicidal activity for the individual herbicide compounds (solo and mixture applications), the herbicidal succession was assessed 14 days after treatment (DAT).
as §4, §5
E=(X+Y+Z)−(X*Y+X*Z+Y*Z/100)+(X*Y*Z/1000)
Tables 6 to 10 relate to the herbicidal activity, in greenhouse trials, of the individual actives and the combination in post-emergence application 14 DAT.

[14] = clopyralid 60 g ai/ha solo, post-emergence (Table 10)
[15] = clopyralid 120 g ai/ha solo, post-emergence (Table 10)
[16] = Metazachlor 375 g ai/ha solo, 29 DAT
[17] = Metazachlor 500 g ai/ha solo, 29 DAT
[18] = Metazachlor 375 g ai/ha solo, 28 DAT
[19] = metazachlor 187 g ai/ha solo, post-emergence (Table 10)
[20] = metazachlor 375 g ai/ha solo, post-emergence (Table 10)
[21] = pethoxamid 600 g ai/ha solo, post-emergence

## COC[C@H](C)N(C(=O)CCl)c1c(C)csc1C [DMTA-P, Dimethenamid-P]
[1]; DMTA-P 63 g ai/ha solo, post-emergence
  % activity 28 DAT: 15%
[1]; DMTA-P 125 g ai/ha solo, post-emergence
  % activity 28 DAT: 25%
[2]; DMTA-P 125 g ai/ha solo
  % activity 28 DAT: 20%

## O=C(O)c1nc(Cl)ccc1Cl [clopyralid]
[3]; clopyralid 120 g ai/ha solo
  % activity 28 DAT: 10%
[4]; [14]
  % activity 28 DAT: 15%
[4]; [15]
  % activity 28 DAT: 15%
[5]; [15]
  % activity 28 DAT: 20%
[1]; [14]
  % activity 28 DAT: 15%

## CC(C)N(C(=O)COc1nnc(C(F)(F)F)s1)c1ccc(F)cc1 [flufenacet]
[4]; flufenacet 60 g ai/ha solo, post-emergence
  % activity 28 DAT: 60%
[4]; flufenacet 120 g ai/ha solo, post-emergence
  % activity 28 DAT: 60%
[6]
  % activity 28 DAT: 0%
[2]; flufenacet 60 g ai/ha solo
  % activity 28 DAT: 0%
[2]; flufenacet 120 g ai/ha solo
  % activity 28 DAT: 20%

## Cc1cccc(C)c1N(Cn1cccn1)C(=O)CCl [metazachlor]
[7]
  % activity: 82%
[8]; [16]
  % activity: 40%
[8]; [17]
  % activity: 57%
[8]; Metazachlor 500 g ai/ha solo, 78 DAT
  % activity: 60%
[9]
  % activity: 32%
[10]; [18]
  % activity: 42%
[10]; [16]
  % activity: 88%
[10]; Metazachlor 500 g ai/ha solo, 28 DAT
  % activity: 67%
[11]; [18]
  % activity: 50%
[11]; [16]
  % activity: 55%
[11]; Metazachlor 375 g ai/ha solo, 72 DAT
  % activity: 53%
[11]; Metazachlor 375 g ai/ha solo, 78 DAT
  % activity: 55%
[11]; [17]
  % activity: 75%
[12]
  % activity: 88%
[3]; metazachlor 375 g ai/ha solo
  % activity 28 DAT: 25%
[4]; [19]
  % activity 28 DAT: 75%
[4]; [20]
  % activity 28 DAT: 75%
[4]; Lamium purpureum, 672 h, solo, 187 g ai/ha, post-emergence, greenhouse, 28 DAT
  inhibition at 187 g/ha: 75%
[5]; [20]
  % activity 28 DAT: 30%
[1]; [19]
  % activity 28 DAT: 15%
[1]; Mercurialis annua, 672 h, solo, 187 g ai/ha, post-emergence, greenhouse, 28 DAT
  inhibition at 187 g/ha: 15%
[13]
  inhibition at 187 g/ha: 10%
[2]; 672 h, solo, 187 g ai/ha, greenhouse, 28 DAT
  inhibition at 187 g/ha: 20%

## CCOCCN(C(=O)CCl)C(=C(C)C)c1ccccc1 [pethoxamid]
[5]; [21]
  % activity 28 DAT: 25%
[1]; pethoxamid 150 g ai/ha solo, post-emergence
  % activity 28 DAT: 0%
[1]; pethoxamid 300 g ai/ha solo, post-emergence
  % activity 28 DAT: 0%
[1]; [21]
  % activity 28 DAT: 10%
[2]; pethoxamid 150 g ai/ha solo
  % activity 28 DAT: 0%
[2]; pethoxamid 300 g ai/ha solo
  % activity 28 DAT: 25%
[2]; pethoxamid 600 g ai/ha solo
  % activity 28 DAT: 30%
